According to patent US20140221397A1, “FIBROSIS INHIBITOR” (Nippon Shinyaku Co., Ltd., priority 2008, published 2014):

What was measured:
[1] = test system: interstitial pneumonia model mice induced by bleomycin; conditions: Non-Patent Document 1; cited from earlier work
Human Lung fibroblasts [2] = test: Proliferation of human lung fibroblasts stimulated by EGF (Test Example 1); assay type: cell-based; conditions: EGF stimulation, 10 μL of a 100 μM solution per well, 48 hours, FIG. 1
Protocol: Human Lung fibroblasts (manufactured by Lonza Walkersville; hereinafter, the same product will be used) were cultured in growth medium, which consisted of basal medium for human lung fibroblasts (manufactured by Lonza Walkersville; hereinafter, the same product will be used and referred to as “basal medium”) with FGM-2 additional factor set (manufactured by Lonza Walkersville; hereinafter, the same product will be used) under the condition of 37° C. and 5% CO2. The human lung fibroblasts were seeded in 96-well plate at 1×10^3 cell/well and incubated overnight in growth medium.
The fibroblasts were washed once with 100 μL of phosphate-buffered saline (manufactured by Nissui Seiyaku; hereinafter, the same product will be used) and 100 μL of basal medium was added thereto followed by incubation for 24 hours. They were further washed with 100 μL of phosphate-buffered saline once and then basal medium was added in an amount of 80 μL/well. Ten μL of a 100 μM solution of the compound A or the compound B was added to each well and incubated for 2 hours. […]
After incubating for 48 hours, absorbance at 490 nm was measured using Cell Titer 96, AQueous Assay (manufactured by Promega) for the analysis of cell proliferation activity. For the measurement of the absorbance, a microplate reader (Benchmark, manufactured by Bio-Rad; hereinafter, the same one will be used) was used.

[3] = test system: α smooth muscle actin (ACTA) mRNA; test: ACTA mRNA expression in human lung fibroblasts stimulated by TGF β1, real-time quantitative PCR (Test Example 4); assay type: cell-based; conditions: TGF β1 stimulation, 24 hours, corrected for GAPDH, FIG. 6
Protocol: (§1) Human lung fibroblasts were seeded in 24-well plate at 1×10^5 cells/well and incubated in growth medium in the same way as in Test Example 1 overnight. The fibroblasts were washed once with 500 μL of basal medium, and added with 500 μL of basal medium followed by incubation for 24 hours. They were further washed once with 500 μL of basal medium and then 400 μL/well of basal medium was added. A 1, 10 or […] of the compound A prepared by the same manner as in Test Example 3 was added in an amount of 50 μL to each well. For the non-stimulated control group and the control group, DMSO which was diluted 100-fold with basal medium was added in an amount of 50 μL. […] Using the cDNA prepared as above as a template, expressed amount of mRNA for type I collagen al chain (COL 1α1), type I collagen α2 chain (COL 1α2), α smooth muscle actin (ACTA), TGF β1 and glyceraldehydes 3-phosphate dehydrogenase (GAPDH) were measured by means of a real-time quantitative PCR method. The real-time quantitative PCR was conducted using Platinum SYBR Green qPCR Super-Mix-UDG with ROX (manufactured by Invitrogen) and a primer being specific to each gene in accordance with the manual attached to the Platinum SYBR Green qPCR Super-Mix-UDG with ROX using ABI PRISM 7000 (Applied Biosystems). […]

[4] = test system: Rat renal interstitial cells (NRF 49F cells); test: Proliferation of rat renal interstitial cells stimulated by PDGF BB, MTT (Test Example 5); assay type: cell-based; conditions: PDGF BB stimulation, 10 μL of a 100 μM solution per well, 48 hours, FIG. 8
Protocol: Rat renal interstitial cells (NRF 49F cells) were seeded in 96-well plate at 1×10^4 cells/well and incubated in an Minimum Essential Medium (MEM medium; manufactured by Nippon Seiyaku; hereinafter, the same product will be used) containing 10% of bovine fetal serum (manufactured by JRH Bioscience; hereinafter, the same product will be used) under the condition of 37° C. and 5% CO2 overnight. The cells were washed once with an MEM medium containing no bovine fetal serum (hereinafter, referred to as “serum-free MEM medium”), and 100 μL of the serum-free MEM medium was added thereto followed by incubation for 24 hours. After washing with serum-free MEM medium once, serum-free MEM medium was added in an amount of 80 μL/well. A 100 μM solution of the compound A prepared by the same method as in Test Example 1 was added in an amount of 10 μL to each well. For the non-stimulated control group and the control group, DMSO which was diluted 100-fold with serum-free MEM medium was added in an amount of 10 μL. […] After incubating for 48 hours, cell proliferation activity (absorbance) was measured by an MTT method in the same way as in Test Example 3. The evaluation of this test was carried out using the value (cell proliferation level) expressed as a relative value where a mean value of absorption of the non-stimulating control group was defined as 1.

Human Lung fibroblasts [5] = test: Collagen production (PIP) in human lung fibroblasts stimulated by TGF β1 (Test Example 3); assay type: cell-based; conditions: TGF β1 stimulation, 10 μL of 0.1, 1, 10 or 100 μM solution per well, 48 hours, FIG. 3
Protocol: Human lung fibroblasts were seeded in 96-well plate at 5×10^3 cells/well and incubated in the growth medium in the same way as in Test Example 1 overnight. The fibroblasts were washed once with 100 μL of basal medium and 100 μL of basal medium was added thereto followed by incubating for 24 hours. They were further washed once with 100 μL of basal medium and then 80 μL/well of basal medium was added. A 0.1, 1, 10 or 100 μM solution of the compound A was added in an amount of 10 μL to each well. […] After incubating for 48 hours, the medium was recovered for measuring the concentration of the type I pro-collagen C terminal peptide (PIP) in the medium, and after an addition of 100 μL of the basal medium, the cell proliferation activity was measured using 3-(4,5-dimethyl-2-thiazolyl)-2,5-diphenyl-2H-tetrazolium bromide (MTT) (manufactured by Nacalai Tesque). Measurement of the cell proliferation activity was conducted in such a manner that 10 μL of a 5 mg/mL MTT stock solution was added to each well, and after incubation for 4 hours, 100 μL of a 0.04M isopropanol solution of hydrochloric acid was added to each well, followed by the absorbance measurement at 595 nm (reference wavelength: 655 nm) using a microplate reader. […]

[6] = test system: type I collagen al chain (COL 1α1) mRNA; test: COL 1α1 mRNA expression in human lung fibroblasts stimulated by TGF β1, real-time quantitative PCR (Test Example 4); assay type: cell-based; conditions: TGF β1 stimulation, 24 hours, corrected for GAPDH, FIG. 4
Protocol: as §1

Human Lung fibroblasts [7] = test: Proliferation of human lung fibroblasts stimulated by TGF-α (Test Example 2); assay type: cell-based; conditions: TGF-α stimulation, 10 μL of a 1 μM solution per well, 48 hours, FIG. 2
Protocol: Human lung fibroblasts were incubated in growth medium under the condition of 37° C. and 5% CO2. The human lung fibroblasts were seeded in 96-well plate at 3×10^3 cell/well and incubated overnight in growth medium.
The fibroblasts were washed once with 100 μL of phosphate-buffered saline. Then basal medium was added thereto and incubation was conducted for 24 hours. They were further washed with 100 μL of phosphate-buffered saline once and then basal medium was added in an amount of 80 μL/well. Ten μL of a 1 μM solution of the compound A was added to each well and incubated for 2 hours. The solution used therefor was prepared in such a manner that the compound A was previously dissolved in DMSO and the resulting 1 mM solution was diluted 100-fold with basal medium. For the non-stimulated control group and the control group, DMSO which was diluted 100-fold with the basal medium was used.
Then a 100 ng/mL solution of transforming growth factor-α (TGF-α) (manufactured by Chemicon) was added in an amount of 10 μL to each well and incubated for 48 hours. For a non-stimulated control group, the basal medium was used.
After incubating for 48 hours, absorbance at 490 nm was measured, in the same way as in Test Example 1, using a reagent for the analysis of cell proliferation activity. For the measurement of the absorbance, a microplate reader was used.

Human skin fibroblasts = test: Collagen production (PIP) in human skin fibroblasts stimulated by TGF β1 (Test Example 6); assay type: cell-based; conditions: TGF β1 stimulation, 10 μL of 0.1, 1, 10 or 100 μM solution per well, 48 hours, FIG. 9
Protocol: Human skin fibroblasts (manufactured by Kurabo; hereinafter, the same product will be used) were seeded in 96-well plate at 5×10^3 cells/well and incubated in a Dulbecco's modified Eagle's medium (DMEM medium; manufactured by Nippon Seiyaku; hereinafter, the same product will be used) containing 10% of bovine fetal serum under the condition of 37° C. and 5% CO2 overnight. The human skin fibroblasts were washed once with an DMEM medium containing no bovine fetal serum (hereinafter, referred to as “serum-free DMEM medium”), and 100 μL of serum-free DMEM medium was added thereto followed by incubation for 24 hours. After washing with serum-free DMEM medium once more, serum-free DMEM medium was added in an amount of 80 μL/well. Ten μL of the 0.1, 1, 10 or 100 μM solution of the compound A prepared by the same method as in Test Example 3 was added to each well. […] After incubating for 48 hours, cell proliferation activity (absorbance) was measured by the MTT method, and PIP concentration in the medium was measured in the same way as in Test Example 3. The evaluation of this test was carried out using the value (index for production of collagen) calculated as a relative value where a mean value in the non-stimulated control group was defined as 1 after correcting the measured value of PIP concentration using the cell proliferation activity value (absorbance).

TGF β1 mRNA = TGF β1 mRNA expression in human lung fibroblasts stimulated by TGF β1, real-time quantitative PCR (Test Example 4); assay type: cell-based; conditions: TGF β1 stimulation, 24 hours, corrected for GAPDH, FIG. 7
Protocol: as §1

[8] = test system: type I collagen α2 chain (COL 1α2) mRNA; test: COL 1α2 mRNA expression in human lung fibroblasts stimulated by TGF β1, real-time quantitative PCR (Test Example 4); assay type: cell-based; conditions: TGF β1 stimulation, 24 hours, corrected for GAPDH, FIG. 5
Protocol: as §1

Row | Compound | effect for interstitial pneumonia [1] | cell proliferation activity (absorbance at 490 nm) as compared with the control group (Human Lung fibroblasts [2]) | ACTA mRNA expression level as compared with the control group [3] | cell proliferation level as compared with the control group [4] | collagen production (index for collagen production, PIP corrected for cell proliferation activity) as compared with the control group (Human Lung fibroblasts [5]) | COL 1α1 mRNA expression level as compared with the control group [6] | cell proliferation activity (absorbance at 490 nm) as compared with the control group (Human Lung fibroblasts [7]) | production of collagen (index for production of collagen, PIP corrected for cell proliferation activity) as compared with the control group (Human skin fibroblasts) | TGF β1 mRNA expression level as compared with the control group (TGF β1 mRNA) | COL 1α2 mRNA expression level as compared with the control group [8]
1 | O=C(O)COc1cccc2c1CCC=C2CCO/N=C(\c1ccccc1)c1cccnc1 [ONO-1301] | inhibitive effect |  |  |  |  |  |  |  |  | 
2 | CC(C)N(CCCCOCC(=O)O)c1cnc(-c2ccccc2)c(-c2ccccc2)n1 [compound A, 2-{4-[N-(5,6-diphenyl-pyrazin-2-yl)-N-isopropylamino]butyloxy}acetic acid] |  | significantly decreased | decreased | significantly decreased | significantly decreased | decreased | significantly decreased | significantly decreased | decreased | decreased
3 | CC(C)N(CCCCOCC(=O)NS(C)(=O)=O)c1cnc(-c2ccccc2)c(-c2ccccc2)n1 [compound B, 2-{4-[N-(5,6-diphenylpyrazin-2-yl)-N-isopropylamino]butyl-oxy}-N-(methylsulfonyl)acetamide] |  | significantly decreased |  |  |  |  | inhibitive effects |  |  | 
